In article PMC6792352, “Limited Chemical Structural Diversity Found to Modulate Thyroid Hormone Receptor in the Tox21 Chemical Library” (Environmental Health Perspectives, 2019):
Counter-ions that a name gives are not always drawn.

Assay: in vitro
Settings: rat, gh3-tre-luc cells, AC50 (uM) modified / 1000

Structure (SMILES) | CC50 at 24 h [µM]
Nc1cc(O)nc(N)n1 [2,4-Diamino-6-hydroxypyrimidine] | > 50
O=C1c2c(O)ccc(Nc3ccc(CCO)cc3)c2C(=O)c2c([N+](=O)[O-])ccc(O)c21 [C.I. Disperse Blue 27] | 63.1
C=CC(C)(CCC=C(C)C)OC(C)=O (stereo not drawn) [Linalyl acetate] | > 90
CCCCCCCCCCCCCC(=O)OC [Methyl tetradecanoate] | > 90
N#C/C(=C1/SCC(c2ccccc2Cl)S1)n1ccnc1 (stereo not drawn) [Lanoconazole] | > 50
C=CC(=O)NC(C)(C)CS(=O)(=O)O [2-Acrylamido-2-methyl-1-propanesulfonic acid] | > 90
CC(CO)(CO)C(=O)O [3-Hydroxy-2-(hydroxymethyl)-2-methylpropanoic acid] | > 90
CC(=O)c1ccc2c(c1)[C@H](NC(=O)c1ccc(F)cc1)[C@@H](O)C(C)(C)O2 [Carabersat] | 51.8
CCCCCC(C)O (stereo not drawn) [2-Heptanol] | > 90
O=NN1CCCCCCC1 [Nitrosoheptamethyleneimine] | > 90
O=C(Nc1ccc(O)cc1)c1ccccc1O [Osalmid] | > 50
COCc1c(C(C)C)nc(C(C)C)c(/C=C/[C@@H](O)C[C@@H](O)CC(=O)O)c1-c1ccc(F)cc1 [Cerivastatin sodium] | > 50
CCCCCCCCC(=O)O [Nonanoic acid] | > 90
Cc1cccc(Nc2ccncc2S(=O)(=O)NC(=O)NC(C)C)c1 [Torsemide] | > 20
O=c1[nH]nc(-c2ccc([N+](=O)[O-])o2)o1 [5-(5-Nitro-2-furyl)-1,3,4-oxadiazole-2-ol] | 67.5
CC(C)COC(=O)COc1ccc(Cl)cc1Cl [2,4-D-isobutyl] | > 90
CN1CCN(C2=Nc3cc(Cl)ccc3Nc3ccccc32)CC1 [Clozapine] | 15.9
CCOC(=O)COc1ccc2c(C)c(CCN(CC)CC)c(=O)oc2c1 [Chromonar hydrochloride] | > 50
CC(C)c1ccccc1O [2-Isopropylphenol] | > 90
CCCCC(CC)COC(=O)CCCCC(=O)OCC(CC)CCCC (stereo not drawn) [Bis(2-ethylhexyl)hexanedioate] | > 90
CN(C)c1ccc(C2(c3ccc(N(C)C)cc3)OC(=O)c3cc(N(C)C)ccc32)cc1 [Crystal Violet lactone] | > 90
CO[C@H]1O[C@@H]2O[C@@]3(C)CC[C@H]4[C@H](C)CC[C@@H]([C@H]1C)[C@@]24OO3 [Artemether] | > 50
CCC1COC(=O)O1 (stereo not drawn) [Butylene carbonate] | > 90
CC(C)(C)NSc1nc2ccccc2s1 [N-tert-Butyl-2-benzothiazolesulfenamide] | > 90
COc1cc(O)cc(O)c1 [Flamenol] | > 50

Structure (SMILES) | CC50 at 24 h [µM]
COc1cccc(O)c1O [3-Methoxycatechol] | 70.4
C=C(C)C(=O)OCC(C)O (stereo not drawn) [2-Hydroxypropyl 2-methylacrylate] | > 90
CN(C)CCc1c[nH]c2ccc(CS(=O)(=O)N3CCCC3)cc12 [Almotriptan] | > 50
CCO[Si](CCCCl)(OCC)OCC [(3-Chloropropyl)(triethoxy)silane] | > 90
CCCCCCCCCCCC[N+](C)(C)CCCS(=O)(=O)O | 55.3
O=C(OCCOCCOC(=O)c1ccccc1)c1ccccc1 [Diethylene glycol dibenzoate] | > 90
O=C(/C=C/c1ccc([N+](=O)[O-])cc1)c1ccccc1 [4-Nitrochalcone] | > 90
C=CCCCCCCCCC(=O)OC [Methyl 10-undecenoate] | > 50
Cc1cc(N)no1 [5-Methyl-3-isoxazolamine] | > 100
Cc1cc(C(=O)O)ccc1[N+](=O)[O-] [3-Methyl-4-nitrobenzoic acid] | > 90
CCC(=O)CC [3-Pentanone] | > 90
CC(C)(C)c1ccc(CCOc2ncnc3ccccc23)cc1 [Fenazaquin] | > 90
N=C(N)NC(=O)c1nc(Cl)c(N)nc1N [Amiloride hydrochloride] | > 90
NC(=S)NC(N)=S [2,4-Dithiobiuret] | > 90
NC(=O)CC[C@@H](N)C(=O)O [D-Glutamine] | > 50
CCCCCCCCCCCCCC [Tetradecane] | > 90
CC(C)(c1cc(Br)c(OCCO)c(Br)c1)c1cc(Br)c(OCCO)c(Br)c1 | 44.3
Clc1nc(Cl)c(Cl)c(Cl)c1Cl [Pentachloropyridine] | > 90
O=C1CCCCCO1 [Caprolactone] | > 90
C=CC(=O)OC [Methyl acrylate] | > 90
Cc1cc(C)nc(NS(=O)(=O)c2ccc(N)cc2)n1 [Sulfamethazine] | > 90
CC(=O)Oc1ccc(C(c2ccc(OC(C)=O)cc2)c2ccccn2)cc1 [Bisacodyl] | > 90
O=P(O)(O)C(O)(Cc1cnc2ccccn12)P(=O)(O)O [Minodronic acid] | > 50
O=C(c1ccc(O)cc1)c1ccc(O)cc1 [4,4'-Dihydoxybenzophenone] | > 90
CN1C[C@@H](NS(=O)(=O)N(C)C)C[C@@H]2c3cccc4c3c(cn4C)C[C@H]21 [Mesulergine] | 22.3

Structure (SMILES) | CC50 at 24 h [µM]
CC(=O)OC(C)=O [Acetic anhydride] | > 90
CCOc1nc2cccc(C(=O)O)c2n1Cc1ccc(-c2ccccc2-c2nnn[nH]2)cc1 [Candesartan] | 34.4
COC(=O)C1=C(C)NC(C)=C(C(=O)OCC(C)=O)C1c1ccccc1[N+](=O)[O-] (stereo not drawn) [Aranidipine] | 8.18
CCCC(=O)Nc1c(I)cc(I)c(CC(CC)C(=O)O)c1I (stereo not drawn) [Sodium tyropanoate] | 26.5
O=C(/C=C/c1ccccc1)NCCO [Idrocilamide] | > 50
CC(=O)OCCOCCOCCOC(C)=O [Triethylene glycol diacetate] | > 90
CCC1NC(=O)c2cc(S(N)(=O)=O)c(Cl)cc2N1 (stereo not drawn) [Quinethazone] | > 20
O=[N+]([O-])c1c(Cl)c(Cl)c(Cl)c(Cl)c1Cl [Pentachloronitrobenzene] | > 90
Cc1ccc2c(c1[N+](=O)[O-])C(=O)c1ccccc1C2=O [2-Methyl-1-nitroanthraquinone] | 38.7
O=C(Nc1ccccc1-c1ccc(Cl)cc1)c1cccnc1Cl [Boscalid] | > 100
Cn1cnc([N+](=O)[O-])c1Sc1ncnc2nc[nH]c12 [Azathioprine] | > 50
O=C1CCc2ccccc2O1 [3,4-Dihydrocoumarin] | > 90
CCCC(=O)OC/C=C(\C)CCC=C(C)C [Geranyl butyrate] | > 90
FC(F)(F)C(F)(F)C(F)(F)C(F)(F)CCI [1,1,1,2,2,3,3,4,4-Nonafluoro-6-iodohexane] | > 40
CC(C)NCC(O)c1ccc(O)c(O)c1 (stereo not drawn) [Isoproterenol hydrochloride] | > 90
C=CCON=C(CCC)C1C(=O)CC(C)(C)C(C(=O)OC)C1=O (stereo not drawn) [Alloxydim-sodium] | > 90
c1ccoc1 [Furan] | > 90
CC1COC(Cn2cncn2)(c2ccc(Oc3ccc(Cl)cc3)cc2Cl)O1 (stereo not drawn) [Difenoconazole] | 41.3
CC1CCCCN1CCCOC(=O)c1ccccc1 (stereo not drawn) [Piperocaine hydrochloride] | > 50
C/C=C1\NC(=O)[C@H]2CSSCC/C=C/[C@H](CC(=O)N[C@H](C(C)C)C(=O)N2)OC(=O)[C@H](C(C)C)NC1=O [Romidepsin] | 0.0269
O=c1[nH]sc2ccccc12 [1,2-Benzisothiazolin-3-one] | 5.86
CC(C)(C)CC(C)(C)c1ccc(Nc2ccc(C(C)(C)CC(C)(C)C)cc2)cc1 [4,4'-bis(1,1,3,3-Tetramethylbutyl)diphenylamine] | > 5
O=[N+]([O-])c1cc([N+](=O)[O-])c2ccc(S(=O)(=O)O)cc2c1O [8-Hydroxy-5,7-dinitro-2-naphthalenesulfonic acid] | 65.4
CC[C@]1(O)CC[C@H]2[C@@H]3CCC4=CCCC[C@@H]4[C@H]3CC[C@@]21C [Ethylestrenol] | > 50
CO[C@@H]1[C@@H](O[C@@H]2O[C@H](C)[C@@H](O[C@H]3C[C@@](C)(O)[C@@H](OC(=O)CC(C)C)[C@H](C)O3)[C@H](N(C)C)[C@H]2O)[C@@H](CC=O)C[C@@H](C)[C@@H](O)/C=C/C=C/C[C@@H](C)OC(=O)C[C@H]1OC(C)=O [Josamycin] | > 20

Same assay, conditions: rat, gh3-tre-luc cells, AC50 (uM) modified / 1000, Tox21_110001=Tox21_112345; viability, 1 nM T3 present, 24 h

Structure (SMILES) | CC50 at 24 h [µM]
ClC1=C(Cl)C2(Cl)C(CBr)CC1(Cl)C2(Cl)Cl (stereo not drawn) [Bromociclen] | 22.4

Same assay, conditions: rat, gh3-tre-luc cells, AC50 (uM) modified / 1000, Tox21_110001=Tox21_112820; viability, 1 nM T3 present, 24 h

Structure (SMILES) | CC50 at 24 h [µM]
CCC(N)Cc1c[nH]c2ccccc12 (stereo not drawn) [Etryptamine acetate] | > 100

Same assay, conditions: rat, gh3-tre-luc cells, AC50 (uM) modified / 1000, Tox21_110001=Tox21_200267; viability, 1 nM T3 present, 24 h

Structure (SMILES) | CC50 at 24 h [µM]
O=NN1CCCCC1 [N-Nitrosopiperidine] | > 90

Same assay, conditions: rat, gh3-tre-luc cells, AC50 (uM) modified / 1000, Tox21_110001=Tox21_200342; viability, 1 nM T3 present, 24 h

Structure (SMILES) | CC50 at 24 h [µM]
OCC(Cl)CCl (stereo not drawn) [2,3-Dichloro-1-propanol] | > 90

Same assay, conditions: rat, gh3-tre-luc cells, AC50 (uM) modified / 1000, Tox21_110001=Tox21_201490; viability, 1 nM T3 present, 24 h

Structure (SMILES) | CC50 at 24 h [µM]
CC(C)(O)C#N [2-Hydroxy-2-methylpropanenitrile] | > 100

Same assay, conditions: rat, gh3-tre-luc cells, AC50 (uM) modified / 1000, Tox21_110001=Tox21_202045; viability, 1 nM T3 present, 24 h

Structure (SMILES) | CC50 at 24 h [µM]
c1ccc2c(c1)Oc1ccccc1O2 [Dibenzo-p-dioxin] | > 90

Same assay, conditions: rat, gh3-tre-luc cells, AC50 (uM) modified / 1000, Tox21_110001=Tox21_300175; viability, 1 nM T3 present, 24 h

Structure (SMILES) | CC50 at 24 h [µM]
CCOP(=S)(OCC)SCSP(=S)(OCC)OCC [Ethion] | > 90

Same assay, conditions: rat, gh3-tre-luc cells, AC50 (uM) modified / 1000, Tox21_110001=Tox21_301856; viability, 1 nM T3 present, 24 h

Structure (SMILES) | CC50 at 24 h [µM]
ClC1=C(Cl)C2(Cl)C(CBr)CC1(Cl)C2(Cl)Cl (stereo not drawn) [Bromociclen] | 36.9

Same assay, conditions: rat, gh3-tre-luc cells, AC50 (uM) modified / 1000, Tox21_110001=Tox21_303256; viability, 1 nM T3 present, 24 h

Structure (SMILES) | CC50 at 24 h [µM]
CC(C)(O)C#N [2-Hydroxy-2-methylpropanenitrile] | > 90
